# Test results reported in US9296749B2, “Crystalline cis-(E)-4-(3-fluorophenyl)-2′,3′,4′,9′-tetrahydro-N,N-dimethyl-2′-(1-oxo-3-phenyl-2-propenyl)-spiro[cyclohexane-1,1′[1H]” (priority 2013, dated 2016).
# Key:
# Assay type in all cases: physicochemical
# [1] = Interconversion/slurry experiments of mixed crystalline forms in 2-propanol (XRPD)
# Method: About 25 mg of a specific crystalline form of compound (1) and 25 mg of the same or another crystalline form of compound (1) were charged into a vial and 1.0 mL of 2-Propanol was added. The vials were closed and the mixtures were stirred (via shaking using an Eppendorf Thermomixer, starting with 750 rpm, increased to 1000 rpm after 1 day) at an elevated temperature (30±2° C.) for 7 days. Subsequently the mixtures were cooled to 20±2° C. and stirred for an additional 2 hours.
# The solids were then separated via filtration using a suction filter. To dry the thus obtained solid material an air flow was applied for 2 to 3 hours.
# The crystalline form of the obtained materials was determined using XRPD. The experiments are summarized below in table 2 below.
# A mixture of two different crystalline forms of compound (1) was charged into a vial and 1.0 mL of 2-Propanol was added (details see table).
# The vials were closed and the mixtures were stirred (by means of shaking, Eppendorf Thermomixer, 750 rpm at first, increased to 1000 rpm after 1 d) at elevated temperature (30±2° C.) for 7 days.
# Subsequently, the mixtures were cooled to 20±2° C. and stirred for additional 2 hours.
# The solids were then isolated via filtration using a suction filter. The air flow from the suction pump was applied for 2 to 3 hours to dry the isolated solid.
# [2] = Slurry of a single crystalline form in solvent, resulting form by XRPD
# Method: A quantity of compound (1) is charged into a vial or flask and an amount of solvent is added. The resulting suspension/solution is stirred (e.g. orbital shaker or overhead-stirrer) for a given time at a specific temperature. Subsequently, if the suspension/solution was stirred at an elevated temperature, it is allowed to cool to room temperature or any other predetermined temperature to precipitate or crystallize the product and the solvent is removed by filtration.
# The vial was closed and the mixture (a white suspension) was stirred (by means of shaking, 400 rpm, PLS Synthesiser) at room temperature (22±2° C.) for 13 days.
# The solid was separated using a suction filter and dried by applying an air flow for additional 5 to 30 minutes (until the solid appeared to be dry).
# The vial was closed and the suspension was stirred (by means of shaking, PLS shaker, 400 rpm) at an elevated temperature (40° C.±2) for 20 h.
# The mixture was cooled to 20±2° C. The solid was separated using a suction filter (G4) and dried by applying an air flow until the sample appeared to be dry. The white solid was subsequently left for 1 h at ambient conditions.
# [3] = Chemical stability in pharmaceutical compositions (excipient mixtures with 10% compound (1)); settings: listed as A
# Method: To test the chemical stability, i.e. compatibility of different crystalline forms of compound (1), solid multi component mixtures were prepared comprising well established excipients used for solid oral dosage form and having different functions therein. The single components of each mixture were exactly weighed and intensively triturated using a mortar and a pestle.
# 10 g of the final mixtures were separately filled into glass vials (open or closed) and stored under the conditions outlined below in table 13. Samples were taken and analyzed initially and after 1, 2 and 3 months with respect to the content of compound (1) within the mixtures.
# [4] = Chemical stability of crystalline forms, open-vial storage (content by HPLC, crystalline form by XRPD)
# Method: Samples of compound 1 in different crystalline forms were stored in open vials under controlled conditions at different temperatures and rel. humidities for 28 days. Prior to storage and after 14 and 28 days the content of compound (1) in the sample was determined via HPLC and the crystalline form was measured via XRPD.
# [5] = Dynamic vapor sorption (DVS), hygroscopicity
# Method: Crystalline forms were characterized by dynamic vapor sorption (DVS) using a Porotec DVS 1000 or a SMS DVS Intrinsic water vapor sorption analyzer. For the DVS analysis, a step width of 10% r.h. was applied allowing the samples to equilibrate and reach weight constancy (±0.002%) for at least 10 min on each step. All measurements were performed according to the following program: 50% r.h.→90% r.h., 90→0% r.h., 0%→90% r.h., 90%→50% r.h. A cycle with increasing humidity is also known as a sorption cycle, a cycle with decreasing humidity is also known as a desorption cycle. The details of the respective DVS measurements are shown below in table 51 and discussed further below.
# The hygroscopicity of the respective crystalline forms determined via the DVS measurements was classified according to the ranges for mass increase defined in the European Pharmacopoeia: very hygroscopic (vh): increase of the mass ≧15%; hygroscopic (h): increase of the mass is less than 15% and equal or greater than 2%; slightly hygroscopic (sh): increase of the mass is less than 2% and equal or greater than 0.2%; not hygroscopic (nh): increase of the mass is less than 0.2%; deliquescent (d): sufficient water is absorbed to form a liquid.
structure (smiles),measurement,setting,value
CN(C)[C@]1(c2cccc(F)c2)CC[C@]2(CC1)c1[nH]c3ccccc3c1CCN2C(=O)/C=C/c1ccccc1 [A17.9],resulting crystalline form,"[1]; 1.0 mL 2-Propanol, 30±2° C. 7 days, then 20±2° C. 2 hours, XRPD",A + H
"CN(C)[C@]1(c2cccc(F)c2)CC[C@]2(CC1)c1[nH]c3ccccc3c1CCN2C(=O)/C=C/c1ccccc1 [crystalline form A, cis-(E)-4-(3-Fluorophenyl)-2′,3′,4′,9′-tetrahydro-N,N-dimethyl-2′-(1-oxo-3-phenyl-2-propenyl)-spiro[cyclohexane-1,1′[1H]-pyrido[3,4-b]indol]-4-amine]",resulting crystalline form,"[2]; suspension in ethanol, 40° C.±2, 20 h",crystalline form A
same,resulting crystalline form,"[2]; suspension in ethylacetate/water 70:30, room temperature (22±2° C.), 13 days",crystalline form A
same,thermodynamic stability relative to the other crystalline forms,[1]; conclusion from the interconversion experiments in 2-Propanol,thermodynamically more stable than the other crystalline forms
same,content of compound (1) within the mixture,"[3]; Lactose monohydrate, PVP25, Crospovidone, Talcum, 40° C., 75% rel. hum., 0 month",99.66
same,content of compound (1) within the mixture,"[3]; Lactose monohydrate, PVP25, Crospovidone, Talcum, 40° C., 75% rel. hum., 1 month",99.93
same,content of compound (1) within the mixture,"[3]; Lactose monohydrate, PVP25, Crospovidone, Talcum, 40° C., 75% rel. hum., 2 months",99.72
same,content of compound (1) within the mixture,"[3]; Lactose monohydrate, PVP25, Crospovidone, Talcum, 40° C., 75% rel. hum., 3 months",99.86
same,content of compound (1) within the mixture,"[3]; Lactose monohydrate, PVP25, Crospovidone, Talcum, 50° C. dry, 0 month",99.66
same,content of compound (1) within the mixture,"[3]; Lactose monohydrate, PVP25, Crospovidone, Talcum, 50° C. dry, 1 month",99.58
same,content of compound (1) within the mixture,"[3]; Lactose monohydrate, PVP25, Crospovidone, Talcum, 50° C. dry, 2 months",99.54
same,content of compound (1) within the mixture,"[3]; Lactose monohydrate, PVP25, Crospovidone, Talcum, 50° C. dry, 3 months",99.56
same,content of compound (1) within the mixture,"[3]; Microcrystalline cellulose, HPMC 6 mPas, L-HPC LH21, magnesium stearate, 40° C., 75% rel. hum., 0 month",90.64
same,content of compound (1) within the mixture,"[3]; Microcrystalline cellulose, HPMC 6 mPas, L-HPC LH21, magnesium stearate, 40° C., 75% rel. hum., 1 month",99.61
same,content of compound (1) within the mixture,"[3]; Microcrystalline cellulose, HPMC 6 mPas, L-HPC LH21, magnesium stearate, 40° C., 75% rel. hum., 2 months",99.60
same,content of compound (1) within the mixture,"[3]; Microcrystalline cellulose, HPMC 6 mPas, L-HPC LH21, magnesium stearate, 40° C., 75% rel. hum., 3 months",99.66
same,content of compound (1) within the mixture,"[3]; Microcrystalline cellulose, HPMC 6 mPas, L-HPC LH21, magnesium stearate, 50° C. dry, 0 month",99.64
same,content of compound (1) within the mixture,"[3]; Microcrystalline cellulose, HPMC 6 mPas, L-HPC LH21, magnesium stearate, 50° C. dry, 1 month",99.59
same,content of compound (1) within the mixture,"[3]; Microcrystalline cellulose, HPMC 6 mPas, L-HPC LH21, magnesium stearate, 50° C. dry, 2 months",99.59
same,content of compound (1) within the mixture,"[3]; Microcrystalline cellulose, HPMC 6 mPas, L-HPC LH21, magnesium stearate, 50° C. dry, 3 months",99.62
same,Content cmpd (1),"[4]; 40° C., 75% r.H., storage 0 d, listed as A",99.58%
same,Content cmpd (1),"[4]; 40° C., 75% r.H., storage 14 d, listed as A",99.63%
same,Content cmpd (1),"[4]; 40° C., 75% r.H., storage 28 d, listed as A",99.39%
same,Content cmpd (1),"[4]; 50° C., storage 0 d, listed as A",99.58%
same,Content cmpd (1),"[4]; 50° C., storage 14 d, listed as A",99.49%
same,Content cmpd (1),"[4]; 50° C., storage 28 d, listed as A",99.37%
same,change in mass with increasing/decreasing relative humidity,[5],−0.2 to 0.1%
same,hysteresis,[5],≤ 0.5%
same,hygroscopicity,[5]; classes of European Pharmacopoeia,not hygroscopic or just slightly hygroscopic
"CN(C)[C@]1(c2cccc(F)c2)CC[C@]2(CC1)c1[nH]c3ccccc3c1CCN2C(=O)/C=C/c1ccccc1 [crystalline form D, cis-(E)-4-(3-Fluorophenyl)-2′,3′,4′,9′-tetrahydro-N,N-dimethyl-2′-(1-oxo-3-phenyl-2-propenyl)-spiro[cyclohexane-1,1′[1H]-pyrido[3,4-b]indol]-4-amine]",transformation into another polymorphic form,"[2]; suspensions of Table 6: acetonitrile, acetone/water or water, RT or 50° C., 3 to 5 d",did not transform into another polymorphic form
same,Content cmpd (1),"[4]; 40° C., 75% r.H., storage 0 d, listed as D",84.61%
same,Content cmpd (1),"[4]; 40° C., 75% r.H., storage 14 d, listed as D",84.27%
same,Content cmpd (1),"[4]; 40° C., 75% r.H., storage 28 d, listed as D",83.92%
same,Content cmpd (1),"[4]; 50° C., storage 0 d, listed as D",84.61%
same,Content cmpd (1),"[4]; 50° C., storage 14 d, listed as D",84.65%
same,Content cmpd (1),"[4]; 50° C., storage 28 d, listed as D",83.54%
same,hysteresis (in words),[5]; sorption and desorption behavior,no significant hysteresis
"CN(C)[C@]1(c2cccc(F)c2)CC[C@]2(CC1)c1[nH]c3ccccc3c1CCN2C(=O)/C=C/c1ccccc1 [crystalline form E, cis-(E)-4-(3-Fluorophenyl)-2′,3′,4′,9′-tetrahydro-N,N-dimethyl-2′-(1-oxo-3-phenyl-2-propenyl)-spiro[cyclohexane-1,1′[1H]-pyrido[3,4-b]indol]-4-amine]",Content cmpd (1),"[4]; 40° C., 75% r.H., storage 0 d, listed as E",99.76%
same,Content cmpd (1),"[4]; 40° C., 75% r.H., storage 14 d, listed as E",99.80%
same,Content cmpd (1),"[4]; 40° C., 75% r.H., storage 28 d, listed as E",99.50%
same,Content cmpd (1),"[4]; 50° C., storage 0 d, listed as E",99.76%
same,Content cmpd (1),"[4]; 50° C., storage 14 d, listed as E",97.25%
same,Content cmpd (1),"[4]; 50° C., storage 28 d, listed as E",95.53%
same,hysteresis (in words),[5]; between 10% and 40% relative humidity,significant hysteresis
